One block for each molecule: values may come before it.
Key:
[1] = Selectivity index, ratio of cytotoxicity against mammalian cells to IC50 for Trypanosoma brucei rhodesiense; type: toxicity, cell-based; settings: read-out: Selectivity Index
[2] = Selectivity index, ratio of cytotoxicity against mammalian cells to IC50 for Trypanosoma cruzi Tulahuen 2; type: toxicity, cell-based; settings: read-out: Selectivity Index
Trypanosoma cruzi = experiment: Antitrypanosomal activity against Trypanosoma cruzi Tulahuen 2; type: functional, organism-based
Trypanothione reductase = Trypanothione reductase (Trypanosoma cruzi, UniProt P28593); experiment: Inhibition of Trypanosoma cruzi trypanothione reductase
Trypanothione reductase, sequence (P28593 whole entry): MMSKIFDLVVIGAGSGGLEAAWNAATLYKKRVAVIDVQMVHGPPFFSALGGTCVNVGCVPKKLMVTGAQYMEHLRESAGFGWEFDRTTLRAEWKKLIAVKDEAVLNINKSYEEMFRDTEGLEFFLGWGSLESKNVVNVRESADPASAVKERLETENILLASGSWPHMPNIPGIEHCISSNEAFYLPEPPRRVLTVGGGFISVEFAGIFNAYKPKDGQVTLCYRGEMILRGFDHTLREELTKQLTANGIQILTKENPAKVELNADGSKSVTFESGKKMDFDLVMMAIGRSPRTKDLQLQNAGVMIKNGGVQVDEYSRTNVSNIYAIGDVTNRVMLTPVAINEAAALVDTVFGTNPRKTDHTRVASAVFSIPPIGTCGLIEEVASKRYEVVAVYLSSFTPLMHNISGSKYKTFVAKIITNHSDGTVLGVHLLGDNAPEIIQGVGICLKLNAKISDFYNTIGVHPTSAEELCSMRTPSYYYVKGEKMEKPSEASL

Leishmania mexicana = experiment: Leishmanistatic activity against Leishmania mexicana; type: functional

Compound: O=C1C=C(Oc2ccccc2)C(=O)c2ccccc21
selectivity ratio [1]: 74

IC50 (Trypanosoma cruzi): 15 µM
IC50 (Trypanothione reductase): 43 µM
Compound: NC(=S)N/N=C/c1ccc(OCc2ccc3no[n+]([O-])c3c2)cc1
selectivity ratio [2]: 27

Compound: C/C(=N/Nc1ccccn1)[C@H]1CC[C@H]2[C@@H]3CC[C@H]4C[C@@H](O)CC[C@]4(C)[C@H]3CC[C@]12C
growth inhibition (GI) (Leishmania mexicana): 39%

— ChEMBL document CHEMBL1154774, “Neglected tropical diseases: multi-target-directed ligands in the search for novel lead candidates against Trypanosoma and Leishmania” (J Med Chem, 2009)
